In experiment [1] the target is T1, Insulin-degrading enzyme (Homo sapiens, UniProt P14735).
T1 sequence (P14735 whole entry): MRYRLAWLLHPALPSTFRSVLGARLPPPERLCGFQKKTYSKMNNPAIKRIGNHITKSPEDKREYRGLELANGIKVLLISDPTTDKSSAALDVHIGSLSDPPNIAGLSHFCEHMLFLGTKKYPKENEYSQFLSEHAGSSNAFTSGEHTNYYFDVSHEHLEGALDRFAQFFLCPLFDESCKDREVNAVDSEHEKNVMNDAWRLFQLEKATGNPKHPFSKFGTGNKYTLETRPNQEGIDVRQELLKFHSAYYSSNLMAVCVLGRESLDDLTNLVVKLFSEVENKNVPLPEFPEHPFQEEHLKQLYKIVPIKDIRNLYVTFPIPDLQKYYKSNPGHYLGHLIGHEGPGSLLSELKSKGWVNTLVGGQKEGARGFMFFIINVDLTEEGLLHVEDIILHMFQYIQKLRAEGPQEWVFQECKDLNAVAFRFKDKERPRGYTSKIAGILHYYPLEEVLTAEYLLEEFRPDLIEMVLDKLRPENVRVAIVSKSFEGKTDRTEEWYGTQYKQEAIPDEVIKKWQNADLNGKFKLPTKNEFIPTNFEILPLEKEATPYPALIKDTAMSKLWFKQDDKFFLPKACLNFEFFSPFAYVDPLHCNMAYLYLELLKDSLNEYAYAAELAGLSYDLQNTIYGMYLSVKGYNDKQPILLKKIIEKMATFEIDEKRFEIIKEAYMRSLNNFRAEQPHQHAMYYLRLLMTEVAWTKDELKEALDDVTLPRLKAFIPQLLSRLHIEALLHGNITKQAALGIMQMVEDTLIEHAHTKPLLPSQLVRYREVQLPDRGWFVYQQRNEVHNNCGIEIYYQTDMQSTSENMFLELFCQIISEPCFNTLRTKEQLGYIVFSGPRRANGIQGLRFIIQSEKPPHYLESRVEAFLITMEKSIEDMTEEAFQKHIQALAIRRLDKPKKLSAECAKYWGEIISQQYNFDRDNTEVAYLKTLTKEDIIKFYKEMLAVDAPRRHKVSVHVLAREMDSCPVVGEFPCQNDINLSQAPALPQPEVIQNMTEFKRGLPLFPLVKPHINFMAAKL
Kind of experiment: cellular IDE activation of Abeta substrate cleavage – fluorescence polarization, HEK cells, dose response (AID 588439). Format: functional, cell-based. For orientation: Polarisation of emitted light reports the rotation of a fluorescent probe.

Experiment [2] deals with T2, Methionyl-tRNA synthetase, putative (Trypanosoma brucei brucei, UniProt Q38C91).
T2 sequence (Q38C91 whole entry): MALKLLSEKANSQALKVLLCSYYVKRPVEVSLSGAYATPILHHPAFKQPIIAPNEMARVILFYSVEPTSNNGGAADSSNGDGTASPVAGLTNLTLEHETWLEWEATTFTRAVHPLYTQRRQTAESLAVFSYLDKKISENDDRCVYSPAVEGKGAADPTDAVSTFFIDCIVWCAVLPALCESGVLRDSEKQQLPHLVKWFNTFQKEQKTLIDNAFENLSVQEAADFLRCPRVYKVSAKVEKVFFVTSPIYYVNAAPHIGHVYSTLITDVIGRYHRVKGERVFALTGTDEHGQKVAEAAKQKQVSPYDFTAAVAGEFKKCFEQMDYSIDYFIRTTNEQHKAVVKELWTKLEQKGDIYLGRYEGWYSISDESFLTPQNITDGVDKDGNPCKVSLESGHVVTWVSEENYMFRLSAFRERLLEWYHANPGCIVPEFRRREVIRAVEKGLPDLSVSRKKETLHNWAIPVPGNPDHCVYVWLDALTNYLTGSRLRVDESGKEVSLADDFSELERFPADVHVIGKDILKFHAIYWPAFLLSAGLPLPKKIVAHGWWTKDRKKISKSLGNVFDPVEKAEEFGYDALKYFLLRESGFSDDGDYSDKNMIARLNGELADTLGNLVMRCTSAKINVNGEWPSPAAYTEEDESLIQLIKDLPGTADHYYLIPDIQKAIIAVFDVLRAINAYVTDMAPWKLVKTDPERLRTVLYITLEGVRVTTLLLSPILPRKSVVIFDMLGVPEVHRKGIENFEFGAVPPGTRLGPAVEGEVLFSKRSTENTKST
Format: functional, Trypanosoma brucei brucei strain 927/4 GUTat10.1.

Experiment [3] has as its system HEK293. Kind of experiment: membrane integrity loss in HEK cells – cell-based, fluorescence, cytotoxicity control for IDE activator project, dose response (AID 588440).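 Note: cytotoxicity by LDH release measuring loss of membrane integrity.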 In kind it is functional. The settings on record: Homo sapiens.
For experiment [4], the system named is HEK293. Description: optical interference in Abeta FP readout, dose response, artefact control for IDE activator project, biochemical, fluorescence polarization (AID 588442). In kind it is functional, cell-based. The settings on record: Homo sapiens.
A short description of experiment [5]: THP-1 cell cytotoxicity, dose response, cytotoxicity control for non-replicating M. tuberculosis project (AID 489025). In kind it is functional.
The target in experiment [6] is T1, Insulin-degrading enzyme. Kind of experiment: recombinant IDE activation, cell-free – biochemical, fluorescence polarization, counter-screen for IDE activator project, dose response (AID 588681).
A short description of experiment [7]: Counterscreen for inhibitors of Trypanosoma brucei methionyl tRNA synthetase (MetRS): Luminescence-based cell-based high throughput dose response assay to identify compounds that are cytotoxic to Jurkat human T lymphocyte cells. In kind it is functional. (A counterscreen serves to expose hits that act by an unwanted route or on another target.)
For experiment [8], the target named is T3, Ubiquitin-conjugating enzyme E2 N (Homo sapiens, UniProt P61088).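 Note: Dose-response confirmation in a TR-FRET assay detecting UBC13-driven polyubiquitin chain formation, inhibition measured.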
T3 sequence (P61088 whole entry): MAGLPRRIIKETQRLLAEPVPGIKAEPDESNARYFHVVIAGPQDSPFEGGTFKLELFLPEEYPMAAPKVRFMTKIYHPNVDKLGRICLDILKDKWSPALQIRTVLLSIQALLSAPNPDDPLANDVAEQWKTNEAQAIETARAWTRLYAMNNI
Format: functional.

The nature of experiment [9]: Vero E6 cell cytotoxicity, dose response, cytotoxicity control for non-replicating M. tuberculosis project, secondary assay (AID 492998). The settings on record: Vero C1008. In kind it is functional, VeroE6.
The nature of experiment [10]: cells. Format: functional.
Experiment [11] can be described thus: HepG2 cell cytotoxicity, dose response, cytotoxicity control for non-replicating M. tuberculosis project (AID 489018). Format: functional. The settings on record: Mycobacterium tuberculosis.
The target in experiment [12] is T2, Methionyl-tRNA synthetase, putative. In kind it is functional, Trypanosoma brucei brucei strain 927/4 GUTat10.1. This is another data set of the same source.
Experiment [13] in a line: cells. In kind it is functional, cell-based.
For experiment [14], the system named is INS1. Kind of experiment: INS-1E survival protection against cytokine death – cell-based, luminescence, retest, dose response (AID 449756).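 Note: cell death triggered by IL-1 beta plus TNF-alpha plus IFN-gamma mixture; protective hits raise ATP signal compared with cytokine alone wells.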 Format: functional. The settings on record: Rattus norvegicus.
Experiment [15] deals with BJ. Description: cells. In kind it is functional, cell-based. The settings on record: Homo sapiens.
Experiment [16] can be described thus: luciferase reporter signal suppression in cells – H4 neuroglioma cells, luminescence, dose response (AID 1990). In kind it is functional, cell-based. (A reporter such as luciferase makes a cellular process visible.)
The nature of experiment [17]: alpha-synuclein stem-loop luciferase translation blockers – H4 neuroglioma cells, luminescence, confirmation (AID 1988). Format: functional, cell-based.
The test system of experiment [18] is BJ. Description: BJ-TERT fibroblast viability loss – cell-based, RAS-independent, luminescence, dose response (AID 1933). In kind it is functional. The settings on record: Homo sapiens.
Experiment [19] is described as follows: Luminescence Cell-Based Dose Response HTS to Identify Inhibitors of 5'UTR Stem-Loop Driven Prion Protein mRNA Translation in H4 Neuroglioblastoma Cells. [Related pubchem assays: 1827 (Project Summary), 1813 (Primary HTS)]. In kind it is functional.
Experiment [20] in a line: cells. Format: functional, cell-based. The source holds these as a separate data set.
Experiment [21] has as its system BJ. Description: growth inhibition of engineered Ras-driven BJ cells – cell-based, alamar blue fluorescence, cherrypicked samples, dose response (AID 2631).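 Note: confirmatory dose-response assay in RAS-dependent BJ fibroblasts engineered with TERT, LT and ST, with cytotoxicity read by fluorescence.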 In kind it is functional. The settings on record: Homo sapiens.
The target of experiment [22] is T4, Long-chain-fatty-acid--AMP ligase FadD28 (Mycobacterium tuberculosis, UniProt P9WQ59).
T4 sequence (P9WQ59 whole entry): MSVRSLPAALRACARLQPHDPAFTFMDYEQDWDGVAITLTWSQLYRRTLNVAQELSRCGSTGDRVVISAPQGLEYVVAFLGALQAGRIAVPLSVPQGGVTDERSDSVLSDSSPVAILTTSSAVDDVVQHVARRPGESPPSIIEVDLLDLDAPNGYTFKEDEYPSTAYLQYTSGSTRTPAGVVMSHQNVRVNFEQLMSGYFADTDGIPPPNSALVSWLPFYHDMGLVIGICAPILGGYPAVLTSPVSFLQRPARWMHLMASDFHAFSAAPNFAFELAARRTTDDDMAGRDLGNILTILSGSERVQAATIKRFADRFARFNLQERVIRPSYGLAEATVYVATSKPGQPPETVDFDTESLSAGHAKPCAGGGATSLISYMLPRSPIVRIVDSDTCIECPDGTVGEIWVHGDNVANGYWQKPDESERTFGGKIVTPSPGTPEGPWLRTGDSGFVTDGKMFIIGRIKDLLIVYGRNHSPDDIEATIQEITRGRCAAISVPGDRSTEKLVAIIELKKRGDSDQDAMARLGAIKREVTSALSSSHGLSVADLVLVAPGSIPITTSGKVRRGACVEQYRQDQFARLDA
Description: Fluorescence polarization aasay to screen for inhibitors that compete for the binding of FadD28 to a bisubstrate Measured in Biochemical System Using Plate Reader - 2147-01_Inhibitor_Dose_CherryPick_Activity. In kind it is functional, Mycobacterium tuberculosis H37Rv.

Experiment [23] is described as follows: DRD fibroblast viability loss – cell-based, non-viral oncogenic, luminescence, dose response (AID 1934). Format: functional. The settings on record: Homo sapiens.
For experiment [24], the system named is HEK293. Kind of experiment: EBV LMP1 TES2 canonical NF-kB signalling blockers – cell-based, HEK293, luciferase, cherry-pick, dose response (AID 588343). In kind it is functional. The settings on record: Homo sapiens.
Experiment [25] concerns BJ. Description: BJ-TERT-LT-ST fibroblast viability loss – cell-based, RAS-independent, luminescence, dose response (AID 1935).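 Note: BJ fibroblasts immortalized with TERT plus LT and ST oncogenes.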 Format: functional. The settings on record: Homo sapiens.
Experiment [26] can be described thus: NIH-3T3 fibroblast cytotoxicity, dose response, cytotoxicity control, cell-based, fluorescence, Alamar Blue, secondary assay (AID 2327).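 Note: NIH-3T3 mouse fibroblasts cultured with fluconazole at 8 µg/mL.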 In kind it is functional.

The source made the active and inactive calls. Bounds are passed on as bounds.

A word on the EC50: it is the midpoint of the concentration-response curve. In general, IC50 refers to the concentration at which inhibition is half-maximal. One may read the CC50 as the concentration that lowers cell viability or growth by half. A word on the AC50: it is the midpoint of the concentration-response curve, whichever way the signal moves.

Take `Cc1c(CN2CCC(CO)(CCOc3ccccc3)CC2)[nH]c2ccc(Cl)cc12`: the EC50 in experiment [1] was 15.9 µM (inactive); in experiment [4], > 54.7 µM (inactive); in [6] it was > 54.7 µM (inactive). Moreover, the IC50 in [2] was 38.8 µM (inactive); in experiment [3] it was 28.3 µM (inactive); in experiment [7], 25.8 µM (inactive); in [8], > 20 µM (inactive); in experiment [10] it was 8.32 µM (active); in experiment [12], 64.4 µM (inactive). Also, the cytotoxic concentration (CC50) is 17.9 µM (active) in experiment [5], 16.8 µM (active) in [9] and 15.1 µM (active) in [11].
For `CCN(CC)c1ccc(/C=N/NC(=O)c2ccc3[nH]cnc3c2)c(O)c1`, the EC50 was > 350 µM (not active) in experiment [13]; 7.44 µM (inconclusive) in [15]; 3.35 µM (active) in [16]; 7.51 µM (active) in experiment [17]; 4.19 µM (active) in experiment [18]; 4.29 µM (active) in experiment [19]. In addition, the EC50 was 8.39 µM (active) in experiment [20]; 0.944 µM (active) in experiment [21]; 4.54 µM (active) in experiment [23]; 9.27 µM (active) in experiment [25]; 6.84 µM (active) in [26]. Moreover, the results for the AC50 in experiment [14], in experiment [22] and in experiment [24] were 0.827 µM (active), 13.1 µM (active) and 7.07 µM (active), respectively.
